Measurements as given in patent US9987276B2 (Celgene CAR LLC, priority 2008, dated 2018).
pIC50: −log10 of the molar value.

What was measured:
BTK [1] = target: T1, BTK (Homo sapiens (Human), UniProt Q06187); test: Omnia assay for potency assessment against BTK; format: biochemical; conditions: [BTK]=5 nM, Omnia assay; read-out: BTK Inhibition (IC50)
Method: The modified BTK-optimized reagent conditions for the above protocol are:
[BTK]=5 nM, [ATP]=[…], [Y5-Sox]=[…] (ATP KMapp˜[…]).

BTK [2] = target: T1, BTK; test: BTK Ramos cellular assay (PLCγ2 phosphorylation); format: cell-based; conditions: Ramos cells, 1 hour compound, anti-IgM stimulation, p-PLCγ2; read-out: BTK Inhibition (IC50), BTK Ramos cellular inhibition
BTK [3] = target: T1, BTK; test: Washout experiment with Ramos cells; format: cell-based; conditions: 100 nM compound for 1 hour, then washout
Procedure, shortened: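 Serum-starved Ramos cells exposed to 100 nM compound for 1 h, then washed and kept in compound-free medium, rewashed every 2 h. At timepoints, BCR stimulated with anti-human IgM for 10 min on ice; BTK activity read as PLCγ2 phosphorylation by western blot.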

ITK = ITK (Homo sapiens (Human), UniProt Q08881); test: Omnia assay for potency assessment against active forms of ITK kinase; format: biochemical; conditions: [ITK]=10 nM, [ATP]=25, [Y6-Sox]=10 μM; read-out: ITK Inhibition
Method: [ITK]=10 nM, [ATP]=25 [Y6-Sox]=10 μM (ATP KMapp=33 μM).

BMX = BMX (Homo sapiens (Human), UniProt P51813); test: Omnia assay for potency assessment against active forms of BMX kinase; format: biochemical; conditions: [BMX]=2.5 nM, [ATP]=100 μM, [Y5-Sox]=7.5 μM; read-out: BMX Inhibition
Method: Briefly, 10× stocks of EGFR-WT (PV3872) from Invitrogen and EGFR-T790M/L858R (40350) from BPS Bioscience, San Diego, Calif., 1.13×ATP (AS001A) and appropriate Tyr-Sox conjugated peptide substrates (KCZ1001) were prepared in 1× kinase reaction buffer consisting of 20 mM Tris, pH 7.5, 5 mM MgCl2, 1 mM EGTA, 5 mM β-glycerophosphate, 5% glycerol (10× stock, KB002A) and 0.2 mM DTT (DS001A).
This example describes continuous-read kinase assays to measure inherent potency of compound against active forms of BMX enzymes as described in Example 251 above except that the modified BMX-optimized reagent conditions are:
[BMX]=2.5 nM, [ATP]=100 μM, [Y5-Sox]=7.5 μM (ATP KMapp=107 μM).

EGFR-WT = EGFR-WT (Homo sapiens (Human), UniProt P00533); test: Omnia assay for potency assessment against EGFR (WT); conditions: read-out: EGFR (wild type inhibition); EGFR wild type
EGFR-T790M/L858R = EGFR-T790M/L858R (Homo sapiens (Human), UniProt P00533, L858R/T790M); test: Omnia assay for potency assessment against EGFR (T790M/L858R); conditions: read-out: EGFR (T790M/L858R); EGFR mutant T790M/L858R
Sequence of EGFR-T790M/L858R (P00533 25-1210 T790M/L858R): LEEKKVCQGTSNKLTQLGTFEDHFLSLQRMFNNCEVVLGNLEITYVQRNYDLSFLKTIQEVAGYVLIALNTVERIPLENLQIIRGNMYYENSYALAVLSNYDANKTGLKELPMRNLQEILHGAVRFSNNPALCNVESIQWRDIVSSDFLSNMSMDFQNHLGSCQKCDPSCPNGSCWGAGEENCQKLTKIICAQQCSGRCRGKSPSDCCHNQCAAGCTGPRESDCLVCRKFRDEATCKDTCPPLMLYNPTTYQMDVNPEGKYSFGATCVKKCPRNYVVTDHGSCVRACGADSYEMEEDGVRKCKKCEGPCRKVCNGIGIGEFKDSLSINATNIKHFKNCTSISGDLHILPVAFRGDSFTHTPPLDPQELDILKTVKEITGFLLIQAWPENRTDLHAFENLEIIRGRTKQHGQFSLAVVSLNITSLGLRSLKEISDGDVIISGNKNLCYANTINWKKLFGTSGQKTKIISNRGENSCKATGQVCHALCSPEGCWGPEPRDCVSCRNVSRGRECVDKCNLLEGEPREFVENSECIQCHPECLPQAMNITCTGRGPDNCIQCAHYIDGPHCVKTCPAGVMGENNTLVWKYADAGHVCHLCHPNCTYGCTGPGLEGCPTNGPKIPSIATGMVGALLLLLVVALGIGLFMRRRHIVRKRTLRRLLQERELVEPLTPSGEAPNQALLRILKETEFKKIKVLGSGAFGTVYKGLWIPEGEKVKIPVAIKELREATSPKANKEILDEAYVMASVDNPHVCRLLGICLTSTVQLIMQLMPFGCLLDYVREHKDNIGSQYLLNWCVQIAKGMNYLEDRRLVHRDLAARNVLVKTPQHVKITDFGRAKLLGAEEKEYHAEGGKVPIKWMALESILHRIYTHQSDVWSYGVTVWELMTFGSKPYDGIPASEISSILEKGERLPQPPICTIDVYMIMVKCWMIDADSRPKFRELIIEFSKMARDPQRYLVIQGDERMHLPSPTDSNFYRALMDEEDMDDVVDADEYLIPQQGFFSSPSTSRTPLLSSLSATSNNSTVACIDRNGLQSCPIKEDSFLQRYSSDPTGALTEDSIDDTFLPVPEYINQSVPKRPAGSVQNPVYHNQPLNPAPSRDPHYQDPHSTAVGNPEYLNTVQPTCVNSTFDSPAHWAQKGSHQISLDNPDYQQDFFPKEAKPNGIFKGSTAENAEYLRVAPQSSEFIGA

T1 sequence (Q06187 whole entry): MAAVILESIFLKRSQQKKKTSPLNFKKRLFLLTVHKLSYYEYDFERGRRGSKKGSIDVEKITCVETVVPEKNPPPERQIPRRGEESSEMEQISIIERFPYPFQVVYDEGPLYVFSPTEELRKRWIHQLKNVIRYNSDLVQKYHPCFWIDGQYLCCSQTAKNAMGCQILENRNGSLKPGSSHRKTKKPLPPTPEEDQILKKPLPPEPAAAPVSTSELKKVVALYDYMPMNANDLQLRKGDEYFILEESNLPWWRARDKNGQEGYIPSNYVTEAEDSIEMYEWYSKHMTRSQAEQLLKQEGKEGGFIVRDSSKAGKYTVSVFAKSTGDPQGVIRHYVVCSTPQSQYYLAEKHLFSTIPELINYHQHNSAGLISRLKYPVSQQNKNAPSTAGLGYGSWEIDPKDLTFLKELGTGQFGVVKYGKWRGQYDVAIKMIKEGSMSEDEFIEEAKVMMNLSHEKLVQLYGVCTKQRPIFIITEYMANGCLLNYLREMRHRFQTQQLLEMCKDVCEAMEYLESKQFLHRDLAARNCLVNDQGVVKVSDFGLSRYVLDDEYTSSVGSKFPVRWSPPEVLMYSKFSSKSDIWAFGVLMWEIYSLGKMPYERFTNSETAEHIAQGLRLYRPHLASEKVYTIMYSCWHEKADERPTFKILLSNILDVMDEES
Sequence of ITK (Q08881 whole entry): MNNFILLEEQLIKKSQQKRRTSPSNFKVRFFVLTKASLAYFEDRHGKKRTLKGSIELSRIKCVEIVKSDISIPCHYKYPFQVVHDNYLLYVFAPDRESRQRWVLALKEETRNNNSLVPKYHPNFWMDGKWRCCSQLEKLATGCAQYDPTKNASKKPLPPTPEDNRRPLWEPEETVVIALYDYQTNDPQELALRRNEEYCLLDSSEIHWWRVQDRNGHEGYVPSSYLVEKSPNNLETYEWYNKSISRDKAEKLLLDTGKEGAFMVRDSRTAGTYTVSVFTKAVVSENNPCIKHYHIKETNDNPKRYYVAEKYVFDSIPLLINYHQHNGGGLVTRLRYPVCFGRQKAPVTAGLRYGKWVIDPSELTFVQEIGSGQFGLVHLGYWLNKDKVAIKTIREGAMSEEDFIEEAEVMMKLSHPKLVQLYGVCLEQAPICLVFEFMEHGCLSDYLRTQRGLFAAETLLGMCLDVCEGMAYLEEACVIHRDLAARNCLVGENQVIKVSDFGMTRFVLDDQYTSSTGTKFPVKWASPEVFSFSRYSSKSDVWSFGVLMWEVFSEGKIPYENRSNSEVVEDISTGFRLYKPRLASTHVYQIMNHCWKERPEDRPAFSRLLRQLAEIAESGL
Sequence of EGFR-WT (P00533 668-1210): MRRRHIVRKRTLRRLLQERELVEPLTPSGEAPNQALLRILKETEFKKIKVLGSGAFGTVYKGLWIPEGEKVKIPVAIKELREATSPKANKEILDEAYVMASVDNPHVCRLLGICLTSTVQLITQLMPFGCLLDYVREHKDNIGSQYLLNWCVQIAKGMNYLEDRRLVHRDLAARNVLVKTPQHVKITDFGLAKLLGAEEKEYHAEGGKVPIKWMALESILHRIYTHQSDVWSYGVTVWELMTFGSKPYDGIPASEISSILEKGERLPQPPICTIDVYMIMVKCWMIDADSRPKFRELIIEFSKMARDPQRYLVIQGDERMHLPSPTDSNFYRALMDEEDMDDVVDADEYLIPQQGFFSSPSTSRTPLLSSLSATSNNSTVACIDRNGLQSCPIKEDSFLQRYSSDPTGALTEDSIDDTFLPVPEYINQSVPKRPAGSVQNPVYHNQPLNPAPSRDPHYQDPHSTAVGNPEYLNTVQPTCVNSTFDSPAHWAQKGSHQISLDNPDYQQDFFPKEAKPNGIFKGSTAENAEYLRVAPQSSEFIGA
Sequence of BMX (P51813 whole entry): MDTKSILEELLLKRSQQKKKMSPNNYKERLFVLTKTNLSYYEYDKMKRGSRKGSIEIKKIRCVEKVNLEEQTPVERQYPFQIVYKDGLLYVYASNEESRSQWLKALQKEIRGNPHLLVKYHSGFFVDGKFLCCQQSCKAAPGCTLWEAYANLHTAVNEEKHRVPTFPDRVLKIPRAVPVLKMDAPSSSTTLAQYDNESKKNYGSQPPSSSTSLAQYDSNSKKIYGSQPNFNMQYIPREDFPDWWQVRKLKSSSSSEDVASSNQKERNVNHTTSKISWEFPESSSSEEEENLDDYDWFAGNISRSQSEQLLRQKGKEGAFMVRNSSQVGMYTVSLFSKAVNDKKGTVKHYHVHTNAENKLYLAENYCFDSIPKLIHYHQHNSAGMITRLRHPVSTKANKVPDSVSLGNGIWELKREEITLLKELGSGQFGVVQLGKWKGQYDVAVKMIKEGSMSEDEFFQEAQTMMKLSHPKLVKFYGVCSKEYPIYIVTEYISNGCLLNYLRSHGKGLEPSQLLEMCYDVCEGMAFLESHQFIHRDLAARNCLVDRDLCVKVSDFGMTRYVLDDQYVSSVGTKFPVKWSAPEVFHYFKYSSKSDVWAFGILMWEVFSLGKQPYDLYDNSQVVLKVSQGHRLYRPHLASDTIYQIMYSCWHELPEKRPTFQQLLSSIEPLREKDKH

pIC50 (BTK [1])	pIC50 (BTK [2])	BTK Inhibition Type (BTK [3])	pIC50 (ITK)	pIC50 (BMX)	pIC50 (EGFR-WT)	pIC50 (EGFR-T790M/L858R)	SMILES
> 8.00	7.00 to 8.00	irreversible	7.00 to 8.00	> 8.00	> 8.00	> 8.00	Cc1cccc(Nc2nc(Nc3cccc(NC(=O)/C=C/CN(C)C)c3)ncc2F)c1 [Compound I-4, (E)-4-(dimethylamino)-N-(3-(5-fluoro-4-(m-tolylamino)pyrimidin-2-ylamino)phenyl)but-2-enamide]
> 8.00	> 8.00	irreversible	> 8.00	> 8.00	> 8.00	> 8.00	C=CC(=O)Nc1cccc(Nc2nc(Nc3ccccc3)ncc2C)c1 [Compound I-7, N-(3-(5-methyl-2-(phenylamino)pyrimidin-4-ylamino)phenyl) acrylamide]
